Assays:
[1] = test system: c-Fos; experiment: c-Fos immunohistochemistry in hippocampus of CUMS mice; format: in vivo, mouse; details: same dosage as fluoxetine (10 mg/kg i.p.)
Description: (§1) Figure 8 SYR effects on the expression of c-Fos and synaptic proteins in the hippocampus. (A) Representative immunohistochemical images of c-Fos expression in the hippocampus with the indicated treatments. (B) Quantitative analysis for hippocampal c-Fos expression with various treatments. Protein expression level is expressed as a percentage of c-Fos fluorescence measured in the control group. Bars represent the mean ± SEM (n = 4). ** p < 0.01 compared with the control or CUMS group by one-way ANOVA followed by post hoc tests. (C) Representative immunoblots of the synaptic proteins BDNF, PSD-95, GluA1, and vGluT1 with various treatments. (D–G) Quantification of the expression of synaptic proteins BDNF (D), PSD-95 (E), GluA1 (F), and vGluT1 (G). The expression level is expressed as a percentage of the integrated density obtained from the control group. Bars represent the mean ± SEM (n = 4). * p < 0.05, ** p < 0.01 by one-way ANOVA followed by post hoc tests.
Mouse mPFC and hippocampal slices were prepared as previously described. Briefly, mice were deeply anesthetized with 4% pentobarbital sodium (Sigma-Aldrich, Saint Louis, MI, USA), and perfused transcardially with PBS, followed by 4% phosphate-buffered paraformaldehyde. […]

[2] = test system: CUMS mice; experiment: Home cage food consumption after NSFT; format: in vivo, mouse; details: all tested dosages, in comparison with the control group
Method: Figure 6 Animal behavioral tests. (A) Schematic illustration of animal behavioral test timeline. Mice were exposed to CUMS for 3 weeks, as described in Section 4. […] For the CUMS group, saline was given instead of drugs. NSFT was performed after 16–18 h food deprivation, followed by FST and TST. (B) NSFT. The latency time to food in NSFT was counted. (C) Home cage food consumption. Food consumed by individual mice in the home cage (g) within a 20 min period was measured after NSFT. (D) FST. The immobility time during a 2 to 6 min period in FST was measured. (E) TST. The immobility time during 2 to 6 min was counted. n = 8–10 mice/group. Bars represent the mean ± SEM. * p < 0.05 compared with the control or CUMS group, respectively, by one-way ANOVA followed by post hoc tests. ns, not significant.
NSFT was performed after 16 h food deprivation, as described previously. The mouse was placed in an open field (24 × 40 × 14 cm), where a new chow was put in the center, and the latency time to bite food was counted over 10 min. Home cage feeding within a 20 min period was measured after the test. FST was carried out according to a protocol described previously. The mouse was placed into a beaker (Bomex, Beijing, China) with a height of 18 cm filled with water (22 ± 1 °C) for 6 min. The immobile time was measured during minutes 2–6. […] The immobile time during minutes 2–6 was measured.

[3] = test system: CUMS mice; experiment: Forced swim test (FST) in CUMS mice; format: in vivo, mouse; details: 10 mg/kg, i.p., 2 weeks
Method: (§2) C57BL/6 adult (6–8 weeks, body weight, 18–22 g) male mice were maintained and handled in a standard condition at the Experimental Animal Center of Southern Medical University (Guangzhou, China). Animal use was approved by the Animal Use and Care Committee of Southern Medical University (approved code: SMUL2021177, approved date: 12 December 2021). The CUMS procedure was carried out according to a protocol described previously. Except for those in the control group, mice were randomly exposed to two mild unpredictable stressors per day for 3 weeks. The stressors included water deprivation, restraint, tilted cage, wet/no bedding, rotation, peppermint, noise, and inverted light off/on. Mice in the control group were group housed without any stressors throughout the procedure. […] NSFT was performed after 16 h food deprivation, as described previously. The mouse was placed in an open field (24 × 40 × 14 cm), where a new chow was put in the center, and the latency time to bite food was counted over 10 min. Home cage feeding within a 20 min period was measured after the test. FST was carried out according to a protocol described previously. The mouse was placed into a beaker (Bomex, Beijing, China) with a height of 18 cm filled with water (22 ± 1 °C) for 6 min. The immobile time was measured during minutes 2–6. TST was performed according to a previous description. The mouse was suspended from a hook that hung from a suspension bar by placing a piece of adhesive tape on its tail about 1 cm away from the tip. The immobile time during minutes 2–6 was measured.

[4] = test system: c-Fos; experiment: c-Fos immunohistochemistry in mPFC of CUMS mice; format: in vivo, mouse; details: 10 mg/kg i.p.
Method: Figure 7 SYR effects on the expression of c-Fos and synaptic proteins in mPFC. (A) Representative immunohistochemical images of c-Fos expression in mPFC under the indicated treatments. Immunohistochemistry of c-Fos was performed with mPFC slices as described in Section 4. The slices were re-probed with anti-DAPI antibody. Immunofluorescence images for c-Fos (green) and DAPI (blue) were acquired by confocal microscopy. (B) Quantitative analysis for c-Fos expression in mPFC with various treatments. Protein expression is expressed as a percentage of c-Fos fluorescence measured in the control group. Bars represent the mean ± SEM (n = 4). * p < 0.05, ** p < 0.01 compared with the control or CUMS group by one-way ANOVA followed by post hoc tests, respectively. (C) Representative immunoblots of the synaptic proteins BDNF, PSD-95, GluA1, and vGluT1 with various treatments. (D–G) Quantification of the expression of the synaptic proteins BDNF (D), PSD-95 (E), GluA1 (F), and vGluT1 (G). The expression level is expressed as a percentage of the integrated density obtained from the control group. Bars represent the mean ± SEM (n = 4). * p < 0.05, ** p < 0.01 by one-way ANOVA followed by post hoc tests.
Mouse mPFC and hippocampal slices were prepared as previously described. […]

[5] = test system: CUMS mice; experiment: Tail suspension test (TST) in CUMS mice; format: in vivo, mouse; details: 10 mg/kg, i.p., 2 weeks
Method: as §2

[6] = test system: CUMS mice; experiment: Novelty suppressed feeding test (NSFT) in CUMS mice; format: in vivo, mouse; details: 10 mg/kg, i.p., 2 weeks
Method: as §2

[7] = Daily body weight during drug administration; details: all tested dosages, 14-day administration, in comparison with the control group
[8] = test system: BDNF, PSD-95, GluA1, and vGluT1; experiment: Immunoblot of synaptic proteins in hippocampus of CUMS mice; format: in vivo, mouse; details: same dosage as fluoxetine (10 mg/kg i.p.)
Description: as §1
Synaptic proteins were extracted from mPFC or hippocampus tissues using RIPA lysis buffer, respectively. Expression of the indicated proteins under various treatments was then analyzed by immunoblotting, as previously reported. […] Quantification of immunoreactive protein bands was performed using Image J v1.53u, and GAPDH was used as an internal reference to normalize expression levels of those proteins, respectively.

[9] = test system: CUMS mice; details: all tested dosages, i.p.
[10] = test system: 5-HT1A receptor; design: method as in PMID 27508501; details: higher potency than its inhibition of SERT activity; cited from earlier work
[11] = design: method as in PMID 21869687, PMID 25500685; details: clinically observed; cited from earlier work

SMILES: CNCCC(Oc1ccc(C(F)(F)F)cc1)c1ccccc1 (stereo not drawn) [fluoxetine, reference compound]
- CUMS-induced decrease in expression of c-Fos in the hippocampus [1]: effectively alleviate
- home cage food consumption [2]: little effect
- CUMS-induced increase in immobility in FST [3]: remarkably alleviated
- CUMS-induced decrease in expression of c-Fos in mPFC [4]: reversed
- CUMS-induced increase in immobility in TST [5]: remarkably alleviated
- CUMS-induced increase in latency to food in NSFT [6]: remarkably alleviated
- daily body weight changes [7]: little effect
- CUMS-induced decrease in expression of synaptic proteins in the hippocampus [8]: effectively alleviate
- fatality rate [9]: zero fatality rate

SMILES: N#Cc1ccc2[nH]cc(CCCCN3CCN(c4ccc5oc(C(N)=O)cc5c4)CC3)c2c1 [vilazodone]
- action at 5-HT1A receptor [10]: partial agonist
- sexual dysfunction [11]: not associated with sexual dysfunction
- weight gain [11]: reduce weight gain

— publication PMC11678425, “(-)-Syringaresinol Exerts an Antidepressant-like Activity in Mice by Noncompetitive Inhibition of the Serotonin Transporter” (Pharmaceuticals, 2024)
